Results on 17 compounds are retold here after ChEMBL document CHEMBL5620370, “1,3-Thiazole derivatives as privileged structures for anti-Trypanosoma cruzi activity: Rational design, synthesis, in silico and in vitro studies” (Eur J Med Chem, 2023).

Active and inactive are the calls of the source. The rule behind the calls is not given here.

The subject of series [1] is Trypanosoma cruzi. The experiment in a line: Antitrypanosomal activity against Trypanosoma cruzi Dm28 epimastigotes assessed as inhibition of parasite growth incubated for 96 hrs by Neubauer chamber based analysis. Particulars: Dm28, 96 h. It counts as functional, organism-based.
A short description of series [2]: Selectivity index, ratio of CC50 for cytotoxicity against mouse RAW264.7 cells to IC50 for antitrypanosomal activity against Trypanosoma cruzi Dm28 epimastigotes assessed as inhibition of parasite growth. It counts as toxicity, cell-based. Conditions: read-out: Ratio CC50/IC50.
The test system of series [3] is Trypanosoma cruzi. Put plainly: Antitrypanosomal activity against Trypanosoma cruzi Tulahuen amastigotes transfected in L929 cells assessed as inhibition of parasite growth incubated for 96 hrs by CPRG based spectrophotometric analysis. It is filed as functional, organism-based. Conditions: L929, 96 h.
A short description of series [4]: Cytotoxicity against mouse RAW264.7 cells assessed as inhibition of cell growth incubated for 72 hrs by MTT assay. It is filed as toxicity, cell-based. For orientation: Tetrazolium dyes change colour on reduction, which living cells bring about.
The test system of series [5] is Trypanosoma cruzi. The experiment in a line: Antitrypanosomal activity against Trypanosoma cruzi Y strain trypomastigotes transfected in African green monkey Vero cells assessed as inhibition of parasite growth incubated for 24 hrs by Neubauer chamber based analysis. It is filed as functional, organism-based.
Series [6] can be described thus: Selectivity index, ratio of CC50 for cytotoxicity against mouse RAW264.7 cells to IC50 for antitrypanosomal activity against Trypanosoma cruzi Y strain trypomastigotes transfected in African green monkey Vero cells assessed as inhibition of parasite growth. It is filed as toxicity, cell-based. Particulars: read-out: Ratio CC50/IC50.
Series [7] can be described thus: Selectivity index, ratio of CC50 for cytotoxicity against mouse RAW264.7 cells to IC50 for antitrypanosomal activity against Trypanosoma cruzi Tulahuen amastigotes transfected in L929 cells assessed as inhibition of parasite growth. It counts as toxicity, cell-based. Conditions: read-out: Ratio CC50/IC50.
Series [8] concerns Trypanosoma cruzi. Put plainly: Induction of apoptosis in Trypanosoma cruzi Y strain trypomastigotes assessed as early apoptosis at 1 times IC50 incubated for 24 hrs by Annexin V-FITC/7AAD staining based flow cytometry. It counts as functional, organism-based. On the technique in general: Flow cytometry measures light scatter and fluorescence of single cells or particles in a stream.

For series [9], the system named is Trypanosoma cruzi. Put plainly: Induction of apoptosis in Trypanosoma cruzi Y strain trypomastigotes assessed as early apoptosis at 2 times IC50 incubated for 24 hrs by Annexin V-FITC/7AAD staining based flow cytometry. It is filed as functional, organism-based.
In series [10] the test system is Trypanosoma cruzi. The experiment in a line: Induction of apoptosis in Trypanosoma cruzi Y strain trypomastigotes assessed as late apoptosis at 1 times IC50 incubated for 24 hrs by Annexin V-FITC/7AAD staining based flow cytometry. It counts as functional, organism-based.
Series [11] has as its system Trypanosoma cruzi. The experiment in a line: Induction of apoptosis in Trypanosoma cruzi Y strain trypomastigotes assessed as necrosis at 1 times IC50 incubated for 24 hrs by Annexin V-FITC/7AAD staining based flow cytometry. It is filed as functional, organism-based.
For series [12], the system named is Trypanosoma cruzi. Put plainly: Induction of apoptosis in Trypanosoma cruzi Y strain trypomastigotes assessed as late apoptosis at 131.92 uM incubated for 24 hrs by Annexin V-FITC/7AAD staining based flow cytometry. It counts as functional, organism-based.
In series [13] the test system is Trypanosoma cruzi. The experiment in a line: Induction of apoptosis in Trypanosoma cruzi Y strain trypomastigotes assessed as necrosis at 131.92 uM incubated for 24 hrs by Annexin V-FITC/7AAD staining based flow cytometry. It is filed as functional, organism-based.
Series [14] relates to Trypanosoma cruzi. Put plainly: Induction of mitochondrial membrane potential loss in Trypanosoma cruzi Y strain trypomastigotes at 1 times IC50 incubated for 24 hrs by Rhodamine 123 staining based flow cytometry. It counts as organism-based.
Series [15] relates to Trypanosoma cruzi. Put plainly: Induction of mitochondrial membrane potential loss in Trypanosoma cruzi Y strain trypomastigotes at 2 times IC50 incubated for 24 hrs by Rhodamine 123 staining based flow cytometry. It is filed as organism-based.
In series [16] the test system is Trypanosoma cruzi. The experiment in a line: Induction of DNA damage in Trypanosoma cruzi Y strain trypomastigotes at 2 times IC50 incubated for 24 hrs by acridine orange staining based flow cytometry. It is filed as functional, organism-based.
Series [17] relates to Trypanosoma cruzi. The experiment in a line: Induction of DNA damage in Trypanosoma cruzi Y strain trypomastigotes at 1 times IC50 incubated for 24 hrs by acridine orange staining based flow cytometry. It is filed as functional, organism-based.
Series [18] deals with Trypanosoma cruzi. Put plainly: Induction of apoptosis in Trypanosoma cruzi Y strain trypomastigotes assessed as late apoptosis at 50.9 uM incubated for 24 hrs by Annexin V-FITC/7AAD staining based flow cytometry. It is filed as functional, organism-based.
The test system of series [19] is Trypanosoma cruzi. Put plainly: Induction of apoptosis in Trypanosoma cruzi Y strain trypomastigotes assessed as necrosis at 50.9 uM incubated for 24 hrs by Annexin V-FITC/7AAD staining based flow cytometry. It counts as functional, organism-based.

As a reminder, the IC50 is the concentration that gives 50% inhibition. As usually defined, the CC50 is the concentration at which the toxic effect on the cells reaches its halfway point. Regarding `C/C(=N\Nc1nc(-c2ccc(Cl)cc2)cs1)c1ccc(Cl)c(Cl)c1Cl`, the IC50 worked out at 10.6 µM in series [1], 8.71 µM in [3] and 3.27 µM in series [5]. For the same compound, the results for the selectivity ratio in [2], in series [6] and in [7] were 3.73, 12.1 and 4.55, respectively. In addition, the CC50 at 72 h in series [4] was 39.6 µM.
As to `C/C(=N\Nc1nc(-c2ccc([N+](=O)[O-])cc2)cs1)c1ccc(Cl)c(Cl)c1Cl`, the figures for the IC50 in series [1] and in series [3] were 28.9 µM and 45.3 µM, respectively. Also, the selectivity ratio amounted to 3.05 in series [2] and 1.95 in series [7]. Also, the CC50 at 72 h in [4] came to 88.5 µM.
For `C/C(=N\Nc1nc(-c2ccc(Cl)cc2)cs1)c1ccc(Cl)cc1Cl`, the IC50 in [1] was determined as 7.55 µM; in series [3], 10.6 µM; in [5], 17.9 µM. Moreover, the selectivity ratio was found to be 7.3 in series [2], 3.07 in series [6] and 5.21 in [7]. Besides, the CC50 at 72 h in series [4] stood at 55.1 µM.
For the compound `C/C(=N\Nc1nc(-c2ccc3ccccc3c2)cs1)c1ccc(Cl)c(Cl)c1Cl`, the IC50 in series [1] is 10.9 µM; in series [3], 25.4 µM; in series [5], 66 µM. For the same compound, the figures for the selectivity ratio in series [2], in [6] and in series [7] were 8.86, 1.45 and 3.79, respectively. Further, in series [4], the half-maximal cytotoxic concentration (CC50) at 72 h came out at 96.2 µM. For the same compound, the result in series [8], in [9], in series [10], in series [11], in series [12] and in [13] was Active. For the same compound, the outcome in [14], in [15], in series [16] and in series [17] was inactive.
In the case of `C/C(=N\Nc1nc(-c2ccc(Cl)c(Cl)c2)cs1)c1ccc(Cl)c(Cl)c1Cl`, the IC50 in [1] amounted to 32.1 µM; in series [3], 25.4 µM; in series [5], 25.4 µM. Also, the selectivity ratio came out at 1.39 in series [2], 1.76 in series [6] and 1.76 in series [7]. Moreover, the CC50 at 72 h in series [4] stood at 44.9 µM. Further, the outcome in [8], in series [9], in [10], in series [11], in series [18] and in series [19] was Active. Besides, the outcome in series [14] and in series [15] was Active. For the same compound, the result in [16] and in [17] was inactive.
For `O=C(Cn1ccnc1[N+](=O)[O-])NCc1ccccc1` [BENZNIDAZOLE], the values for the IC50 in series [1], in series [3] and in [5] were 56.9 µM, 5.64 µM and 41 µM, respectively. For the same compound, the selectivity ratio worked out at 0.77 in series [2], 1.07 in [6] and 7.83 in series [7]. The CC50 at 72 h in [4] is 44.2 µM.
In the case of `C/C(=N\NC1NC(=O)CS1)c1ccc(Cl)cc1Cl` (stereo not drawn), the IC50 in series [5] came to 1.12 µM.
`C/C(=N\Nc1nc(-c2ccc(F)cc2)cs1)c1ccc(Cl)c(Cl)c1Cl`: the IC50 in series [1] worked out at 19.4 µM; in [3] it was 27.9 µM; in [5], 21.5 µM. Also, the selectivity ratio in series [2] is 2.17; in series [6], 1.96; in series [7], 1.51. For the same compound, the CC50 at 72 h in series [4] came to 42.2 µM. Further, the result in [8], in [9], in [10], in series [11], in series [16] and in series [17] was Active. Besides, the result in series [14] and in series [15] was inactive.
In the case of `C/C(=N\Nc1nc(-c2ccc(-c3ccccc3)cc2)cs1)c1ccc(Cl)c(Cl)c1Cl`, the IC50 is 8.62 µM in series [1], 12.9 µM in series [3] and 2.64 µM in series [5]. Moreover, the selectivity ratio in series [2] is 7.22; in [6], 23.6; in series [7], 4.83. Moreover, the CC50 at 72 h in series [4] was found to be 62.2 µM.
`C/C(=N\Nc1nc(-c2ccc(Cl)cc2Cl)cs1)c1ccc(Cl)c(Cl)c1Cl`: the IC50 in [1] was determined as 8.33 µM; in [3], 13.6 µM; in series [5], 4.08 µM. Also, the selectivity ratio worked out at 4.35 in [2], 8.89 in series [6] and 2.67 in series [7]. Further, the CC50 at 72 h in series [4] is 36.3 µM.
Turning to `COc1ccc(-c2csc(N/N=C(\C)c3ccc(Cl)cc3Cl)n2)cc1`, the figures for the IC50 in series [1], in [3] and in [5] were 3.48 µM, 3.65 µM and 45.3 µM, respectively. Besides, the results for the selectivity ratio in series [2], in [6] and in series [7] were 12.4, 0.95 and 11.8, respectively. In addition, the CC50 at 72 h in series [4] turned out to be 43.1 µM. Moreover, the result in [8], in series [9], in series [10], in series [11], in [14] and in series [15] was Active. The outcome in [16] and in [17] was inactive.
Regarding `C/C(=N\Nc1nc(-c2ccc(Br)cc2)cs1)c1ccc(Cl)c(Cl)c1Cl`, the half-maximal inhibitory concentration (IC50) in [1] was found to be 5.25 µM; in series [3] it was 5.96 µM. Further, the selectivity ratio in series [2] was 5.68; in [7], 5. Also, in series [4], the CC50 at 72 h came out at 29.9 µM.
For `C/C(=N\Nc1nc(-c2cccc([N+](=O)[O-])c2)cs1)c1ccc(Cl)c(Cl)c1Cl`, the 50% inhibitory concentration (IC50) in [1] came to 8.42 µM; in series [3], 4.46 µM. Moreover, the selectivity ratio in [2] amounted to 3.47; in series [7], 6.55. Besides, the CC50 at 72 h in [4] was 29.2 µM.
With `C/C(=N\Nc1nc(-c2ccc(-c3ccccc3)cc2)cs1)c1ccc(Cl)cc1Cl`, the IC50 came to 20.2 µM in series [1], 14.9 µM in series [3] and 10.6 µM in [5]. The values for the selectivity ratio in series [2], in series [6] and in series [7] were 3.96, 7.58 and 5.38, respectively. Also, in series [4], the half-maximal cytotoxic concentration (CC50) at 72 h was found to be 80.1 µM.
As to `C/C(=N\Nc1nc(-c2ccccc2)cs1)c1ccc(Cl)cc1Cl`, the IC50 was 7.42 µM in series [1], 21.3 µM in series [3] and 45.9 µM in [5]. In addition, the figures for the selectivity ratio in series [2], in series [6] and in series [7] were 5.76, 0.93 and 2, respectively. Besides, the CC50 at 72 h in series [4] stood at 42.8 µM.
As to `C/C(=N\Nc1nc(-c2ccccc2)cs1)c1ccc(Cl)c(Cl)c1Cl`, the IC50 in series [1] was determined as 13.8 µM; in [3], 20.6 µM; in series [5], 11.5 µM. Besides, the selectivity ratio in [2] amounted to 2.18; in series [6] it was 2.61; in [7] it was 1.46. Besides, the CC50 at 72 h in [4] came to 30.2 µM.
Turning to `COc1ccc(-c2csc(N/N=C(\C)c3ccc(Cl)c(Cl)c3Cl)n2)cc1`, the IC50 in [1] came out at 7.88 µM; in [3], 7.84 µM; in series [5] it was 30.9 µM. Besides, the selectivity ratio in series [2] amounted to 3.43; in series [6], 0.87; in [7] it was 3.45. The CC50 at 72 h in [4] worked out at 27.1 µM.
